Read-outs that look alike come from different tables or passages of the source.
Biological target: T1, human kinase Mps-1 (Homo sapiens, UniProt P33981)
T1 construct: N-terminally GST-tagged human full length recombinant Mps-1 kinase; GST (N); purchased Invitrogen, Karslruhe, Germany PV4071
T1 sequence (P33981 1-857): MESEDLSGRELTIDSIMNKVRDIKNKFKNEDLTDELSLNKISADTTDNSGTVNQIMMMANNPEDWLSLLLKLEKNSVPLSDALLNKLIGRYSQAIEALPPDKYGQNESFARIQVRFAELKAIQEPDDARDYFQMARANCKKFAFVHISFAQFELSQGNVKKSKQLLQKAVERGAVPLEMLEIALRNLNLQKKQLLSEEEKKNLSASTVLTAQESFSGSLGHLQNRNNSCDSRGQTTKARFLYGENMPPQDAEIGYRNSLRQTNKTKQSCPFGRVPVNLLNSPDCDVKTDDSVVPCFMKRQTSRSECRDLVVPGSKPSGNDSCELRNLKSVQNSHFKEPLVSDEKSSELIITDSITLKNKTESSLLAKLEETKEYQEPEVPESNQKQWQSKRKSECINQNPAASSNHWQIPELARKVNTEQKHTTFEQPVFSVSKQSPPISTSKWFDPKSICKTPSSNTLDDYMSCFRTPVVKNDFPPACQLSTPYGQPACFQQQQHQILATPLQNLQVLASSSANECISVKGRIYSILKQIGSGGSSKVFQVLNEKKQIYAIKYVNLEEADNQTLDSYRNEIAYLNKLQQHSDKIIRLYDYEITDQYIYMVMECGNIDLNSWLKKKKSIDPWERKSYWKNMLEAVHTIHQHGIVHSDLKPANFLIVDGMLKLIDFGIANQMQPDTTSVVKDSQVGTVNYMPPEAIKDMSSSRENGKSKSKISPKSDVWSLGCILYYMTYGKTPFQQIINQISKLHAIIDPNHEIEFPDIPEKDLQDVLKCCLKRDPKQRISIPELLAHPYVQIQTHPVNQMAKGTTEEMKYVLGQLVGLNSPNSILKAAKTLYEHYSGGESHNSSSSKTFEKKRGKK
Assay: Mps-1 kinase assay (TR-FRET)
Assay type: biochemical
Settings: N-terminally GST-tagged human full length recombinant Mps-1, 10 μM ATP, 1 μM biotinylated peptide substrate, 60 min at 22° C.

| IC50 (read-out: Mps1 IC50) [nM] | Structure (SMILES) | IC50 (Mps1 IC50 [nM]) [nM] |
| --- | --- | --- |
| – | NC(=O)CCNc1nccn2c(-c3ccc(C(=O)NC4CC4)c(Cl)c3)cnc12 [Example 7-54, 4-{8-[(3-amino-3-oxopropyl)amino]imi-dazo[1,2-a]pyrazin-3-yl}-2-chloro-N-cyclopropylbenzamide] | 4870 |
| – | O=C(NC1CC1)c1ccc(-c2cnc3c(NCC(O)C(F)(F)F)nccn23)cc1Cl (centres unmarked) [Example 7-55, 2-chloro-N-cyclopropyl-4-{8-[(3,3,3-trifluoro-2-hydroxypropyl)amino]imi-dazo[1,2-a]pyrazin-3-yl}benzamide] | 175 |
| – | O=C(NC1CC1)c1ccc(-c2cnc3c(NCCC(F)(F)F)nccn23)cc1Cl [Example 7-56, 2-chloro-N-cyclopropyl-4-{8-[(3,3,3-trifluoropropyl)amino]imi-dazo[1,2-a]pyrazin-3-yl}benzamide] | 43 |
| – | CC(O)CNc1nccn2c(-c3ccc(C(=O)NC4CC4)c(Cl)c3)cnc12 (centres unmarked) [Example 7-57, 2-chloro-N-cyclopropyl-4-{8-[(2-hydroxypropyl)amino]imi-dazo[1,2-a]pyrazin-3-yl}benzamide] | 401 |
| – | COCCCNc1nccn2c(-c3ccc(C(=O)NC4CC4)c(Cl)c3)cnc12 [Example 7-58, 2-chloro-N-cyclopropyl-4-{8-[(3-methoxypropyl)amino]imi-dazo[1,2-a]pyrazin-3-yl}benzamide] | 485 |
| – | O=C(NC1CC1)c1ccc(-c2cnc3c(NCC(F)F)nccn23)cc1Cl [Example 7-59, 2-chloro-N-cyclopropyl-4-{8-[(2,2-difluoroethyl)amino]imi-dazo[1,2-a]pyrazin-3-yl}benzamide] | 239 |
| – | Cn1ccc(CNc2nccn3c(-c4ccc(C(=O)NC5CC5)c(Cl)c4)cnc23)n1 [Example 7-60, 2-chloro-N-cyclopropyl-4-(8-{[(1-methyl-1H-pyrazol-3-yl)methyl]amino}imi-dazo[1,2-a]pyrazin-3-yl)benzamide] | 767 |
| – | Cn1nccc1CNc1nccn2c(-c3ccc(C(=O)NC4CC4)c(Cl)c3)cnc12 [Example 7-61, 2-chloro-N-cyclopropyl-4-(8-{[(1-methyl-1H-pyrazol-5-yl)methyl]amino}imi-dazo[1,2-a]pyrazin-3-yl)benzamide] | 269 |
| – | Cn1cc(CNc2nccn3c(-c4ccc(C(=O)NC5CC5)c(Cl)c4)cnc23)cn1 [Example 7-62, 2-chloro-N-cyclopropyl-4-(8-{[(1-methyl-1H-pyrazol-4-yl)methyl]amino}imi-dazo[1,2-a]pyrazin-3-yl)benzamide] | 308 |
| – | CCOC(C)CNc1nccn2c(-c3ccc(C(=O)NC4CC4)c(Cl)c3)cnc12 (centres unmarked) [Example 7-63, 2-chloro-N-cyclopropyl-4-{8-[(2-ethoxypropyl)amino]imi-dazo[1,2-a]pyrazin-3-yl}benzamide] | 409 |
| – | CC(C)(O)CNc1nccn2c(-c3ccc(C(=O)NC4CC4)c(Cl)c3)cnc12 [Example 7-64, 2-chloro-N-cyclopropyl-4-{8-[(2-hydroxy-2-methylpropyl)amino]imi-dazo[1,2-a]pyrazin-3-yl}benzamide] | 538 |
| – | O=C(NC1CC1)c1ccc(-c2cnc3c(NCc4ccc(Cl)s4)nccn23)cc1Cl [Example 7-65, 2-chloro-4-(8-{[(5-chlorothiophen-2-yl)methyl]amino}imi-dazo[1,2-a]pyrazin-3-yl)-N-cyclopropylbenzamide] | 25 |
| 519 | CS(=O)(=O)CCCNc1nccn2c(-c3ccc(C(=O)NC4CC4)c(Cl)c3)cnc12 [Example 7-66, 2-chloro-N-cyclopropyl-4-(8-{[3-(methylsulfonyl)propyl]ami-no}imidazo[1,2-a]pyrazin-3-yl)benzamide] | – |
| – | O=C(NC1CC1)c1ccc(-c2cnc3c(NC[C@@H](O)CO)nccn23)cc1Cl [Example 7-68, 2-chloro-N-cyclopropyl-4-{8-[(2,3-dihydroxypropyl)amino]imi-dazo[1,2-a]pyrazin-3-yl}benzamide] | 1720 |
| 23.3 | CCCNc1nccn2c(-c3ccc(C(=O)NC4CC4)c(O)c3)cnc12 [Example 7-69, N-cyclopropyl-2-hydroxy-4-[8-(propylamino)imidazo[1,2-a]pyrazin-3-yl]benzamide] | – |
| – | O=C(NC1CC1)c1ccc(-c2cnc3c(NCCO)nccn23)cc1O [Example 7-70, N-cyclopropyl-2-hydroxy-4-{8-[(2-hydroxyethyl)amino]imi-dazo[1,2-a]pyrazin-3-yl}benzamide] | 414 |

| IC50 (read-out: Mps1 IC50) [nM] | Structure (SMILES) | IC50 (Mps1 IC50 [nM]) [nM] |
| --- | --- | --- |
| – | O=C(NC1CC1)c1ccc(-c2cnc3c(NCCCN4CCOCC4)nccn23)cc1O [Example 7-71, N-cyclopropyl-2-hydroxy-4-(8-{[3-(morpholin-4-yl)propyl]amino}imi-dazo[1,2-a]pyrazin-3-yl)benzamide] | 304 |
| – | O=C(NC1CC1)c1ccc(-c2cnc3c(NCC4CCCO4)nccn23)cc1O (centres unmarked) [Example 7-72, N-cyclopropyl-2-hydroxy-4-{8-[(tetrahydrofuran-2-ylmethyl)amino]imi-dazo[1,2-a]pyrazin-3-yl}benzamide] | 36.3 |
| – | O=C(NC1CC1)c1ccc(-c2cnc3c(NCCCN4CCCC4=O)nccn23)cc1O [Example 7-73, N-cyclopropyl-2-hydroxy-4-(8-{[3-(2-oxopyrrolidin-1-yl)propyl]amino}imi-dazo[1,2-a]pyrazin-3-yl)benzamide] | 593 |
| – | O=C(NC1CC1)c1ccc(-c2cnc3c(NCc4ccc(F)cc4)nccn23)cc1O [Example 7-74, N-cyclopropyl-4-{8-[(4-fluorobenzyl)amino]imi-dazo[1,2-a]pyrazin-3-yl}-2-hydroxybenzamide] | 98.2 |
| 2030 | O=C(NC1CC1)c1ccc(-c2cnc3c(NCc4ccccc4)nccn23)cc1O [Example 7-75, 4-[8-(benzylamino)imidazo[1,2-a]pyrazin-3-yl]-N-cyclopropyl-2-hydroxybenzamide] | – |
| – | O=C(NC1CC1)c1ccc(-c2cnc3c(NCc4cccs4)nccn23)cc1O [Example 7-76, N-cyclopropyl-2-hydroxy-4-{8-[(thiophen-2-ylmethyl)amino]imi-dazo[1,2-a]pyrazin-3-yl}benzamide] | 35.8 |
| 63.1 | CCNc1nccn2c(-c3ccc(C(=O)NC4CC4)c(O)c3)cnc12 [Example 7-77, N-cyclopropyl-4-[8-(ethylamino)imidazo[1,2-a]pyrazin-3-yl]-2-hydroxybenzamide] | – |
| – | O=C(NC1CC1)c1ccc(-c2cnc3c(NCCCO)nccn23)cc1O [Example 7-78, N-cyclopropyl-2-hydroxy-4-{8-[(3-hydroxypropyl)amino]imi-dazo[1,2-a]pyrazin-3-yl}benzamide] | 93.1 |
| – | O=C(NC1CC1)c1ccc(-c2cnc3c(NCc4ccco4)nccn23)cc1O [Example 7-79, N-cyclopropyl-4-{8-[(furan-2-ylmethyl)amino]imi-dazo[1,2-a]pyrazin-3-yl}-2-hydroxybenzamide] | 77.3 |
| – | CC(C)CNc1nccn2c(-c3ccc(C(=O)NC4CC4)c(O)c3)cnc12 [Example 7-80, N-cyclopropyl-2-hydroxy-4-{8-[(2-methylpropyl)amino]imi-dazo[1,2-a]pyrazin-3-yl}benzamide] | 15.5 |
| – | N#CCCNc1nccn2c(-c3ccc(C(=O)NC4CC4)c(O)c3)cnc12 [Example 7-81, 4-{8-[(2-cyanoethyl)amino]imi-dazo[1,2-a]pyrazin-3-yl}-N-cyclopropyl-2-hydroxybenzamide] | 51.3 |
| – | O=C(NC1CC1)c1ccc(-c2cnc3c(NCC(O)C(F)(F)F)nccn23)cc1O (centres unmarked) [Example 7-82, N-cyclopropyl-2-hydroxy-4-{8-[(3,3,3-trifluoro-2-hydroxypropyl)amino]imi-dazo[1,2-a]pyrazin-3-yl}benzamide] | 56.7 |
| – | O=C(NC1CC1)c1ccc(-c2cnc3c(NCCC(F)(F)F)nccn23)cc1O [Example 7-83, N-cyclopropyl-2-hydroxy-4-{8-[(3,3,3-trifluoropropyl)amino]imi-dazo[1,2-a]pyrazin-3-yl}benzamide] | 22.3 |
| – | CC(O)CNc1nccn2c(-c3ccc(C(=O)NC4CC4)c(O)c3)cnc12 (centres unmarked) [Example 7-84, N-cyclopropyl-2-hydroxy-4-{8-[(2-hydroxypropyl)amino]imi-dazo[1,2-a]pyrazin-3-yl}benzamide] | 96.9 |
| – | Cn1cc(CNc2nccn3c(-c4ccc(C(=O)NC5CC5)c(O)c4)cnc23)cn1 [Example 7-85, N-cyclopropyl-2-hydroxy-4-(8-{[(1-methyl-1H-pyrazol-4-yl)methyl]amino}imi-dazo[1,2-a]pyrazin-3-yl)benzamide] | 105 |
| – | CCOC(C)CNc1nccn2c(-c3ccc(C(=O)NC4CC4)c(O)c3)cnc12 (centres unmarked) [Example 7-86, N-cyclopropyl-4-{8-[(2-ethoxypropyl)amino]imi-dazo[1,2-a]pyrazin-3-yl}-2-hydroxybenzamide] | 268 |
